In ChEMBL document CHEMBL1136560, “1,4-Diazepane-2-ones as novel inhibitors of LFA-1” (Bioorg Med Chem Lett, 2003):

Molecular target: Intercellular adhesion molecule (ICAM-1), Integrin alpha-L/beta-2 (Homo sapiens, UniProt P05107+P20701)
Experiment: Inhibition of LFA-1/ICAM-1 interaction in ELISA
Assay type: protein-complex assay

Sequence of Intercellular adhesion molecule (ICAM-1), Integrin alpha-L/beta-2 (P20701 whole entry): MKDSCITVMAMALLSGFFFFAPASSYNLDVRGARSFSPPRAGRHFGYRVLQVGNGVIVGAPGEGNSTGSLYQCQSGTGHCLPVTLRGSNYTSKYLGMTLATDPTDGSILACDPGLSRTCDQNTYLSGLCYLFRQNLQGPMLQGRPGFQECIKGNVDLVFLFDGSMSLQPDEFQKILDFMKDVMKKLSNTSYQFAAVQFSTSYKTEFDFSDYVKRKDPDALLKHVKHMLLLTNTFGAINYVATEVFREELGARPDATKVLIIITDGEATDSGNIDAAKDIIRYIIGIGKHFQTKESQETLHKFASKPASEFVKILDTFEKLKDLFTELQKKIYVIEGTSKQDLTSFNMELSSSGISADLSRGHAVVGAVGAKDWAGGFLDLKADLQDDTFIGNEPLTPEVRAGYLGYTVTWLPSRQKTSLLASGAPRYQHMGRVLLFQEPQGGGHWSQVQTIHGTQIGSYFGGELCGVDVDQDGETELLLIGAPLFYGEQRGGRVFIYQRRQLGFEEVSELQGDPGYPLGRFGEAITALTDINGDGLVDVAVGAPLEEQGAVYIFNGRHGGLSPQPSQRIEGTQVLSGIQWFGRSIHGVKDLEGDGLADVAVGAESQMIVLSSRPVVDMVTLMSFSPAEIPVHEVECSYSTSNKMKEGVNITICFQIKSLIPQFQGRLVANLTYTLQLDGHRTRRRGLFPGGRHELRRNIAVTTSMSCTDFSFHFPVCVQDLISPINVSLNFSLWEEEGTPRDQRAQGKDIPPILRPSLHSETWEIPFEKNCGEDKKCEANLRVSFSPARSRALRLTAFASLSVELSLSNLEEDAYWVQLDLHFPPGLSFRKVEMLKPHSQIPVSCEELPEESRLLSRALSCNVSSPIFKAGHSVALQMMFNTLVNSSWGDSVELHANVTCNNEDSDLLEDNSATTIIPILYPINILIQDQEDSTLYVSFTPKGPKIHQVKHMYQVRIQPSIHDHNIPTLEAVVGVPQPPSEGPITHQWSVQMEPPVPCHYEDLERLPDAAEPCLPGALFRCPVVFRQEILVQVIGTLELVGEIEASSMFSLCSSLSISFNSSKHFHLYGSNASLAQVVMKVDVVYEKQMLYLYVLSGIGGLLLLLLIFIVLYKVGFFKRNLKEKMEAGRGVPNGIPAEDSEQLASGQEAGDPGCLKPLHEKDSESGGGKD
Sequence of Intercellular adhesion molecule (ICAM-1), Integrin alpha-L/beta-2 (P05362 whole entry, further chain): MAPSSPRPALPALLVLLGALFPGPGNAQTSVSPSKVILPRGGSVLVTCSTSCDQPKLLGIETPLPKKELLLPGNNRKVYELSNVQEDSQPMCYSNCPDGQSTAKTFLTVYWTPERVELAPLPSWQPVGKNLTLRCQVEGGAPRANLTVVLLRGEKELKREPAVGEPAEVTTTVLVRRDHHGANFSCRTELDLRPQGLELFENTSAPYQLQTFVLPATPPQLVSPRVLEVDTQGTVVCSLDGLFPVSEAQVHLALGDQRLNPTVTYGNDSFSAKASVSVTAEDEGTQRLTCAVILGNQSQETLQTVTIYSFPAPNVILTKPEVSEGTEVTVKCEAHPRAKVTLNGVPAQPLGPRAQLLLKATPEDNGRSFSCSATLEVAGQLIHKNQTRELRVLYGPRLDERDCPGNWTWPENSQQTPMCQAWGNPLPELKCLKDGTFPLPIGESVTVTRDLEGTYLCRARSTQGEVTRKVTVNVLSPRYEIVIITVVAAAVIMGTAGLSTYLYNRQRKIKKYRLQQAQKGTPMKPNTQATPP
Sequence of Intercellular adhesion molecule (ICAM-1), Integrin alpha-L/beta-2 (P05107 whole entry): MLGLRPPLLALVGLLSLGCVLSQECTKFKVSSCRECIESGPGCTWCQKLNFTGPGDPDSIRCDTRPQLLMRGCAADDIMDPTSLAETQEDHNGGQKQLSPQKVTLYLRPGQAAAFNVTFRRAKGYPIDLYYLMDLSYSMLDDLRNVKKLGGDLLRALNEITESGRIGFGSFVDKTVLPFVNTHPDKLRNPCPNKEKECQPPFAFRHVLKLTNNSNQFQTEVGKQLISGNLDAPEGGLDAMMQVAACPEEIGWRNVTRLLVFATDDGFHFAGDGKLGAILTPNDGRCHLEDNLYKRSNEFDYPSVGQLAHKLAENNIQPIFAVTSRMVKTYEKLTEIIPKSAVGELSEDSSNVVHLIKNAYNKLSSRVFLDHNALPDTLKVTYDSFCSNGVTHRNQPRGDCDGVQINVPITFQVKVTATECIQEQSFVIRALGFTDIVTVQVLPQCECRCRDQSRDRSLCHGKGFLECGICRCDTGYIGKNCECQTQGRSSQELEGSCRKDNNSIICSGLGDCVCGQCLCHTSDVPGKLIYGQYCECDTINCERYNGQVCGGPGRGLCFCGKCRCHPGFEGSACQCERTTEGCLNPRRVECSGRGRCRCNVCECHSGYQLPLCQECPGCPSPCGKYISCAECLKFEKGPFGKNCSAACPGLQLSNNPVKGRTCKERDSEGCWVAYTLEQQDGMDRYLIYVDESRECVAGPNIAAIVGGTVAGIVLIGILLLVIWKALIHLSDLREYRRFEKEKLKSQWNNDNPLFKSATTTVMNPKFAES

Row | Compound | IC50
1 | CC(C)C[C@H]1C(=O)N([C@@H](Cc2ccc3ccccc3c2)C(N)=O)CC[C@@H](C)N1C(=O)Cc1ccncc1 | 970 nM
2 | CC(C)C[C@H]1C(=O)N([C@@H](Cc2ccc3ccccc3c2)C(N)=O)CC[C@@H](C)N1C(=O)Cc1ccccc1 | 750 nM
3 | CC(C)C[C@H]1C(=O)N([C@H](C(N)=O)c2ccc3ccccc3c2)CCC(C)N1C(=O)Cc1ccc2ccccc2c1 (some centres not stated) | > 20000 nM
4 | CC(C)C[C@H]1C(=O)N([C@@H](Cc2ccc3ccccc3c2)C(N)=O)CC[C@@H](C)N1C(=O)Cc1ccc2ccccc2c1 | 2000 nM

The remaining lines, values ahead:

Row | IC50 | Compound
5 | 2600 nM | COC(=O)[C@H](Cc1ccc2ccccc2c1)N1CC[C@@H](C)N(C(=O)Cc2ccc3ncccc3c2)[C@@H](CC(C)C)C1=O
6 | 1300 nM | CC(C)C[C@H]1C(=O)N([C@@H](Cc2ccc3ccccc3c2)C(N)=O)CC[C@@H](C)N1C(=O)Cc1ccc(Br)cc1
7 | > 20000 nM | CC(C)C[C@H]1C(=O)N([C@@H](Cc2ccc3ccccc3c2)C(=O)O)CC[C@@H](C)N1C(=O)Cc1ccc2ccccc2c1
